Data published in PMC4399838, “Antipsychotic-Like Effect of the Muscarinic Acetylcholine Receptor Agonist BuTAC in Non-Human Primates” (PLoS ONE, 2015).

Target: T1, M2AChR (Homo sapiens, UniProt P08172)
T1 sequence (P08172 1-466): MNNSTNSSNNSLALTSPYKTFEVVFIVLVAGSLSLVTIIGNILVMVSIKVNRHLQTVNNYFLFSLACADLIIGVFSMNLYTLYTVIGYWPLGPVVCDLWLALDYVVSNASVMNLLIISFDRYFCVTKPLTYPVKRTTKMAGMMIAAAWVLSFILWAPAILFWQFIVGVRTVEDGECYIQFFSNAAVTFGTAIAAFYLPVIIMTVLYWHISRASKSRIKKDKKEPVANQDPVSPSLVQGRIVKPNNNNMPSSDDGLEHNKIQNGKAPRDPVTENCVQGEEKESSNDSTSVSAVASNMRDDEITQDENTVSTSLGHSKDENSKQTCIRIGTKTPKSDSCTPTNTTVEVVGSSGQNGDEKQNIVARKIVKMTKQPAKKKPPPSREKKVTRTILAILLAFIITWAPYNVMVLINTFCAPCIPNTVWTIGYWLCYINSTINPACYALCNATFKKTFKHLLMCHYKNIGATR
Assay: Competitive radioligand binding

CCCSc1nsnc1[C@H]1CN2CCC[C@H]1C2 [PTAC, (5R,6R) 6-(3-propylthio-1,2,5-thiadiazol-4-yl)-1-azabicyclo-[3.2.1]-octane] gave a Ki of 3.8 nM.
